Laboratory results reported in patent US20090012263A1, “Process for Production of (1,3-Disubstituted Indolyl)-Urea Derivatives, Intermediates Therefor, and Process for Production of the Intermediates” (KOWA COMPANY, LTD., priority 2004, published 2009).

Assay: storage stability of the intermediate
Type: physicochemical

| Structure (SMILES) | stability of storage (under refrigeration and light shielding, amorphous powder) | can be stored (storage stability) (room temperature under light shielding, crystalline) |
| --- | --- | --- |
| O=C(Nc1ccc2c(CN3CCCC3)cn(Cc3c(Cl)cccc3Cl)c2c1)Oc1ccccc1 [Example 4, 6-phenyloxycarbonylamino-3-(1-pyrrolidinylmethyl)-N-[1-(2,6-dichlorophenyl)methyl]-1H-indole] | over 3 months | – |
| O=C(Nc1ccc2c(c1)c(CN1CCCC1)cn2Cc1c(Cl)cccc1Cl)Oc1ccccc1 [Example 2, 5-phenyloxycarbonylamino-3-(1-pyrrolidinylmethyl)-N-[1-(2,6-dichlorophenyl)methyl]-1H-indole] | – | over 2 years |
